PubChem BioAssay (NCI)
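These data come from cells grown in 96-well plates and exposed to compound for 48 hours at five concentrations. GI50 is the concentration that inhibits growth by half. TGI is the concentration that stops growth completely.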

Columns and labels:
Test in all cases: NCI tumour cell line growth inhibition, 48 h
[1] = tested on: A549 NSCLC
[2] = tested on: SNB-19 CNS
[3] = tested on: TK-10 renal
[4] = tested on: ACHN renal
[5] = tested on: A498 renal
[6] = tested on: OVCAR-3 ovarian
[7] = tested on: HOP-92 NSCLC
[8] = tested on: SK-MEL-5 melanoma
[9] = tested on: DU-145 prostate

Structure (SMILES): C=CCNC1=C2C[C@@H](C)C[C@@H](OC)[C@H](OC(=O)CCN(C)C)[C@H](C)/C=C(\C)[C@@H](OC(N)=O)[C@H](OC)/C=C\C=C(/C)C(=O)NC(=CC1=O)C2=O
- TGI [1]: 17.4 µM
- TGI [2]: 23.1 µM
- TGI [3]: 17.3 µM
- TGI [4]: 22.2 µM
- TGI [5]: 21.4 µM
- TGI [6]: 3.61 µM
- TGI [7]: 29.2 µM
- TGI [8]: 12.7 µM

Structure (SMILES): NC(Cc1ccccc1CP(=O)(O)O)C(=O)O (stereo not drawn)
- TGI [1]: > 100 µM
- TGI [2]: > 100 µM
- TGI [3]: > 100 µM
- TGI [4]: > 100 µM
- TGI [6]: > 100 µM
- TGI [9]: > 100 µM
- TGI [7]: > 100 µM
- TGI [8]: > 100 µM

Structure (SMILES): S=c1[nH]nc(CCCCCCCCc2n[nH]c(=S)o2)o1
- TGI [1]: > 100 µM
- TGI [2]: > 100 µM
- TGI [3]: > 100 µM
- TGI [4]: > 100 µM
- TGI [5]: > 100 µM
- TGI [6]: > 100 µM
- TGI [9]: > 100 µM
- TGI [8]: > 100 µM

Structure (SMILES): CC[C@]1(Cc2ccc(OC)c(OC)c2)C=[N+]([O-])O[C@H](OC2CCCC2(c2ccccc2)c2ccccc2)[C@@H]1OC(=O)C(C)(C)C (stereo partly drawn)
- TGI [1]: > 36.6 µM
- TGI [2]: 30.3 µM
- TGI [3]: > 25.4 µM
- TGI [4]: 5.25 µM
- TGI [6]: 2.92 µM
- TGI [9]: 4.45 µM
- TGI [7]: 18.2 µM
- TGI [8]: 4.09 µM

Structure (SMILES): COC1OC(C(=O)O)C2OC(C)(C)OC12 (stereo not drawn)
- TGI [1]: > 100 µM
- TGI [2]: > 100 µM
- TGI [3]: > 100 µM
- TGI [4]: > 100 µM
- TGI [6]: > 100 µM
- TGI [9]: > 100 µM
- TGI [7]: > 100 µM
- TGI [8]: > 100 µM

Structure (SMILES): Cc1ccccc1Nc1nc2ccccc2nc1NS(=O)(=O)c1ccccc1
- TGI [1]: > 100 µM
- TGI [2]: > 100 µM
- TGI [3]: > 100 µM
- TGI [4]: > 100 µM
- TGI [6]: > 100 µM
- TGI [7]: > 100 µM
- TGI [8]: > 100 µM

Structure (SMILES): Cc1cc(Nc2ccc(Cl)cc2)nc(NCCCNc2ccnc3cc(Cl)ccc23)n1
- GI50 [3]: 1.73 µM
- TGI [3]: 3.19 µM
- GI50 [4]: 1.63 µM
- TGI [4]: 3.06 µM
- GI50 [9]: 1.84 µM
- TGI [9]: 3.35 µM
- GI50 [7]: 1.01 µM
- TGI [7]: 2.53 µM
- GI50 [8]: 1.57 µM
- TGI [8]: 2.91 µM

Structure (SMILES): CCCCCCCc1ccc(-c2nnc(N=Nc3ccc(OCCCCC)cc3)s2)s1
- TGI [1]: > 100 µM
- TGI [2]: > 100 µM
- TGI [3]: > 100 µM
- TGI [4]: > 100 µM
- TGI [5]: > 100 µM
- TGI [6]: > 100 µM
- TGI [9]: > 100 µM
- TGI [8]: > 100 µM

Structure (SMILES): c1ccc(-c2c(-c3[nH]c4ccccc4c3-c3ccccc3)[nH]c3ccccc23)cc1
- TGI [1]: 13.5 µM
- TGI [2]: 19.3 µM
- TGI [3]: 22.4 µM
- TGI [4]: 11.6 µM
- TGI [6]: 5.44 µM
- TGI [9]: 10.8 µM
- TGI [7]: 12.2 µM
- TGI [8]: 14.8 µM

Structure (SMILES): CC(=O)N1c2cc(N=NN(C)C)ccc2NC(=O)CC1C (stereo not drawn)
- TGI [1]: > 100 µM
- TGI [2]: > 100 µM
- TGI [3]: > 100 µM
- TGI [4]: > 100 µM
- TGI [6]: > 100 µM
- TGI [9]: > 100 µM
- TGI [8]: > 100 µM

Structure (SMILES): c1cncc([O][Ge]([O]c2cccnc2)([O]c2cccnc2)[O]c2cccnc2)c1
- GI50 [1]: > 100 µM
- TGI [1]: > 100 µM
- GI50 [2]: > 100 µM
- TGI [2]: > 100 µM
- GI50 [3]: > 100 µM
- TGI [3]: > 100 µM
- GI50 [6]: > 100 µM
- TGI [6]: > 100 µM
- GI50 [8]: > 100 µM
- TGI [8]: > 100 µM

Structure (SMILES): COc1cc2c(cc1OC)C(=O)/C(=C/c1ccc(N(C)C)cc1)CC2
- TGI [1]: > 10 µM
- TGI [2]: > 10 µM
- TGI [3]: > 10 µM
- TGI [4]: > 10 µM
- TGI [6]: > 10 µM
- TGI [9]: > 10 µM
- TGI [7]: > 10 µM
- TGI [8]: > 10 µM

Structure (SMILES): CCOC(=O)c1cc2c3c(cc(OC)c2[nH]1)N(C(=O)OCC)CC3
- TGI [1]: > 100 µM
- TGI [2]: > 100 µM
- TGI [5]: > 100 µM
- TGI [6]: > 100 µM
- TGI [9]: > 100 µM
- TGI [7]: > 100 µM
- TGI [8]: > 100 µM

Structure (SMILES): Clc1cc2ncn(C3CCCCO3)c2cc1Cl (stereo not drawn)
- TGI [1]: > 100 µM
- TGI [2]: > 100 µM
- TGI [6]: > 100 µM
- TGI [9]: > 100 µM
- TGI [8]: > 100 µM

Structure (SMILES): Cc1nc(Cc2n[nH]c(C)n2)n[nH]1
- TGI [1]: > 100 µM
- TGI [2]: > 100 µM
- TGI [3]: > 100 µM
- TGI [4]: > 100 µM
- TGI [6]: > 100 µM
- TGI [9]: > 100 µM
- TGI [7]: > 100 µM
- TGI [8]: > 100 µM

Structure (SMILES): CCOC(=O)c1c(-c2ccccc2)c(C)cn1C
- TGI [1]: > 10 µM
- TGI [2]: > 10 µM
- TGI [3]: > 10 µM
- TGI [4]: > 10 µM
- TGI [6]: > 10 µM
- TGI [9]: > 10 µM
- TGI [7]: > 10 µM

Structure (SMILES): COc1ccc(C23OCC(Cc4cc(OC)c(OC)cc42)C3CO)cc1OC (stereo not drawn)
- TGI [1]: > 100 µM
- TGI [2]: > 100 µM
- TGI [3]: > 100 µM
- TGI [4]: > 100 µM
- TGI [5]: > 100 µM
- TGI [6]: > 100 µM
- TGI [9]: > 100 µM
- TGI [8]: > 100 µM

Structure (SMILES): CN(C)C(=O)Oc1ccc(C(=S)Nc2ccccc2)cc1
- TGI [1]: > 100 µM
- TGI [2]: > 100 µM
- TGI [4]: > 100 µM
- TGI [5]: > 100 µM
- TGI [6]: > 100 µM
- TGI [9]: > 100 µM
- TGI [8]: 55.6 µM

Structure (SMILES): c1ccc(Nc2nnc(CCCCCCCCc3nnc(Nc4ccccc4)o3)o2)cc1
- TGI [1]: > 100 µM
- TGI [2]: > 100 µM
- TGI [3]: > 100 µM
- TGI [4]: > 100 µM
- TGI [5]: > 100 µM
- TGI [6]: > 100 µM
- TGI [9]: > 100 µM
- TGI [8]: > 100 µM

Structure (SMILES): O=c1c2cc(I)ccc2nc(-c2cccs2)n1O
- TGI [1]: 61.2 µM
- TGI [2]: 72 µM
- TGI [3]: 79.4 µM
- TGI [4]: > 100 µM
- TGI [6]: 42.8 µM
- TGI [9]: 96.9 µM
- TGI [7]: 79.6 µM
- TGI [8]: > 100 µM

Structure (SMILES): N#Cc1c(N)nc(Sc2ccccc2N)c(C#N)c1-c1ccccc1
- TGI [1]: > 100 µM
- TGI [2]: > 100 µM
- TGI [3]: 34.2 µM
- TGI [4]: 69.2 µM
- TGI [9]: 52.3 µM
- TGI [7]: 64.3 µM
- TGI [8]: > 100 µM
